Measured values: patent US6500624B1, “Kainate-binding, human CNS receptors of the EAA3 family” (NPS Allelix Corp., priority 1992, dated 2002)

Molecular target: T1, human EAA3a receptor (Homo sapiens, UniProt P39086)
T1 construct: To provide the entire coding region of the receptor; expressed in transfected cells; host or cells: COS-1 (monkey, ATCC CRL 1650), transient transfection with pcDNAIA/humEAA3a; membrane preparation
Assay: NMDA binding to membranes of EAA3a-producing COS cells
Conditions: EAA3a-producing COS cell membranes

T1 sequence (P39086 31-905 isoform P39086-2 limits assumed): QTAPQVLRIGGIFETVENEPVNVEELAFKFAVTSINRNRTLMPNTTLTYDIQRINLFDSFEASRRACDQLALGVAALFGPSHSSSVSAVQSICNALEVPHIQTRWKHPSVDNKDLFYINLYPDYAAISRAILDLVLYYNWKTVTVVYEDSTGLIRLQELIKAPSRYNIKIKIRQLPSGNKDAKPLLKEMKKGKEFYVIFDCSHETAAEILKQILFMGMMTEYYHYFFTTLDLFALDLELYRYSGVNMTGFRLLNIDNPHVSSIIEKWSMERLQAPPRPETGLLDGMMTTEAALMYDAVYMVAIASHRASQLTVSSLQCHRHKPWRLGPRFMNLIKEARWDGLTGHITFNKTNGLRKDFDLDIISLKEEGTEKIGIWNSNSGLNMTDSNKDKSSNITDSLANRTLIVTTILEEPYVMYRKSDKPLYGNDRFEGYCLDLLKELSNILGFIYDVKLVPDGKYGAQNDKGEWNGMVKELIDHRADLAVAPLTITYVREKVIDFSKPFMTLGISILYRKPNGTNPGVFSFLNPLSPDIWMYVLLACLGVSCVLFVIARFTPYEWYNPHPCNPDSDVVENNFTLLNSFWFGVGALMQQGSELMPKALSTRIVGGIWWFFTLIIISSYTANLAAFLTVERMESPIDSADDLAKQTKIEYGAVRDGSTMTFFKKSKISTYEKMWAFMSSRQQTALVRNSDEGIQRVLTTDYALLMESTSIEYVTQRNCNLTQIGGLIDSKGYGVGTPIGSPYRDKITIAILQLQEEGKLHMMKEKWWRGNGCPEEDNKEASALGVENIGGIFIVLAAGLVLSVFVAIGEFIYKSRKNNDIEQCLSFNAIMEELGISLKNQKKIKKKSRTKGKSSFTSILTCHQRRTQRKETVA

CN[C@H](CC(=O)O)C(=O)O [NMDA, N-methyl-D-aspartate]
binding of NMDA: little or no demonstrable binding
